We go through five compounds from ChEMBL document CHEMBL1255305, “Affinity of doripenem and comparators to penicillin-binding proteins in Escherichia coli and Pseudomonas aeruginosa” (Antimicrob Agents Chemother, 2008).

SMILES strings stand for the structures. Values after ≈ are worked out from the molar mass of the structure shown. Active and inactive are the calls of the source. The rule behind the calls is not given here. A value given as a limit tells only on which side of the number the result lay.

Assay [1] is described as follows: Inhibition of Bocillin FL binding to PBP1A in Escherichia coli MC4100 membranes. The assay is classed as cell membranes.
A short description of assay [2]: Inhibition of Bocillin FL binding to PBP1B in Escherichia coli MC4100 membranes. The assay is classed as cell membranes.
A short description of assay [3]: Inhibition of Bocillin FL binding to PBP2 in Escherichia coli MC4100 membranes. It counts as cell membranes.
Assay [4] can be described thus: Inhibition of Bocillin FL binding to PBP3 in Escherichia coli MC4100 membranes. It counts as cell membranes.
Assay [5] can be described thus: Inhibition of Bocillin FL binding to PBP4 in Escherichia coli MC4100 membranes. The assay is classed as cell membranes.
Assay [6] in a line: Inhibition of Bocillin FL binding to PBP5 in Escherichia coli MC4100 membranes. The assay is classed as cell membranes.
The nature of assay [7]: Inhibition of Bocillin FL binding to PBP6 in Escherichia coli MC4100 membranes. It counts as cell membranes.
For assay [8], the system named is Escherichia coli. The experiment in a line: Antimicrobial activity against Escherichia coli MC4100 by CLSI protocol based broth microdilution method. It counts as functional.
The nature of assay [9]: Inhibition of Bocillin FL binding to PBP1A in Pseudomonas aeruginosa PAO1 membranes.
Assay [10] in a line: Inhibition of Bocillin FL binding to PBP1B in Pseudomonas aeruginosa PAO1 membranes.
The nature of assay [11]: Inhibition of Bocillin FL binding to PBP2 in Pseudomonas aeruginosa PAO1 membranes.
Assay [12] can be described thus: Inhibition of Bocillin FL binding to PBP3 in Pseudomonas aeruginosa PAO1 membranes.
The nature of assay [13]: Inhibition of Bocillin FL binding to PBP4 in Pseudomonas aeruginosa PAO1 membranes.
Assay [14] is described as follows: Inhibition of Bocillin FL binding to PBP5/6 in Pseudomonas aeruginosa PAO1 membranes.
For assay [15], the system named is Pseudomonas aeruginosa. The experiment in a line: Antimicrobial activity against Pseudomonas aeruginosa PAO1 by CLSI protocol based broth microdilution method. It counts as functional.
Assay [16] in a line: Inhibition of Bocillin FL binding to PBP1A in Pseudomonas aeruginosa 27853 membranes.
A short description of assay [17]: Inhibition of Bocillin FL binding to PBP1B in Pseudomonas aeruginosa 27853 membranes.
A short description of assay [18]: Inhibition of Bocillin FL binding to PBP2 in Pseudomonas aeruginosa 27853 membranes.
A short description of assay [19]: Inhibition of Bocillin FL binding to PBP3 in Pseudomonas aeruginosa 27853 membranes.
Assay [20] in a line: Inhibition of Bocillin FL binding to PBP4 in Pseudomonas aeruginosa 27853 membranes.
Assay [21] can be described thus: Inhibition of Bocillin FL binding to PBP5/6 in Pseudomonas aeruginosa 27853 membranes.
Assay [22] deals with Pseudomonas aeruginosa. The experiment in a line: Antimicrobial activity against Pseudomonas aeruginosa 27853 by CLSI protocol based broth microdilution method. It counts as functional.
Assay [23] concerns Escherichia coli. The experiment in a line: Induction of morphological changes in Escherichia coli MC4100 assessed as induction of sphere formation at antimicrobial MIC after 4 hrs by microscopy. The assay is classed as functional, organism-based.
The test system of assay [24] is Pseudomonas aeruginosa. Nature of the assay: Induction of morphological changes in Pseudomonas aeruginosa 27853 assessed as induction of sphere formation at antimicrobial MIC after 60 mins by microscopy. The assay is classed as functional, organism-based.
Assay [25] concerns Pseudomonas aeruginosa. Nature of the assay: Induction of morphological changes in Pseudomonas aeruginosa 27853 assessed as increase in cell length at antimicrobial MIC after 240 mins by microscopy. It counts as functional, organism-based.
Assay [26] relates to Pseudomonas aeruginosa. The experiment in a line: Induction of morphological changes in Pseudomonas aeruginosa 27853 assessed as increase in cell length at antimicrobial MIC after 60 mins by microscopy. It counts as functional, organism-based.
Assay [27] relates to Pseudomonas aeruginosa. The experiment in a line: Induction of morphological changes in Pseudomonas aeruginosa 27853 assessed as induction of sphere formation at antimicrobial MIC after 240 mins by microscopy. The assay is classed as functional, organism-based.

Turning to `C[C@@H](O)[C@H]1C(=O)N2C(C(=O)O)=C(S[C@@H]3CN[C@H](CNS(N)(=O)=O)C3)[C@H](C)[C@H]12` [DORIPENEM], the IC50 was 1.2 µg/mL (≈ 2.85 µM) in assay [1]; 1.2 µg/mL (≈ 2.85 µM) in assay [2]; 0.008 µg/mL (≈ 0.019 µM) in [3]; 2 µg/mL (≈ 4.76 µM) in assay [4]; 0.02 µg/mL (≈ 0.0476 µM) in assay [5]; 4 µg/mL (≈ 9.51 µM) in [6]. Further, the IC50 was 1 µg/mL (≈ 2.38 µM) in [7]; 0.5 µg/mL (≈ 1.19 µM) in assay [9]; 0.6 µg/mL (≈ 1.43 µM) in assay [10]; 0.06 µg/mL (≈ 0.143 µM) in assay [11]; 0.07 µg/mL (≈ 0.166 µM) in assay [12]; 0.008 µg/mL (≈ 0.019 µM) in assay [13]. Besides, the IC50 was 8 µg/mL (≈ 19 µM) in assay [14]; 0.8 µg/mL (≈ 1.9 µM) in assay [16]; 0.6 µg/mL (≈ 1.43 µM) in assay [17]; 0.04 µg/mL (≈ 0.0951 µM) in assay [18]; 0.06 µg/mL (≈ 0.143 µM) in assay [19]; below 0.008 µg/mL in assay [20]. Further, the IC50 in assay [21] is above 4 µg/mL. Moreover, the MIC in the assay with Escherichia coli [8] is 0.03 µg/mL (≈ 0.0713 µM); against Pseudomonas aeruginosa [15], 0.25 µg/mL (≈ 0.595 µM); in the assay with Pseudomonas aeruginosa [22], 0.25 µg/mL (≈ 0.595 µM). The result with Escherichia coli [23], in the assay on Pseudomonas aeruginosa [24] and in the assay on Pseudomonas aeruginosa [25] was Active.
As to `C[C@@H](O)[C@H]1C(=O)N2C(C(=O)O)=C(S[C@@H]3CN[C@H](C(=O)N(C)C)C3)[C@H](C)[C@H]12` [MEROPENEM], the IC50 in assay [1] came out at 1.7 µg/mL (≈ 4.43 µM); in assay [2], 1.3 µg/mL (≈ 3.39 µM); in assay [3] it was 0.008 µg/mL (≈ 0.0209 µM); in [4] it was 0.6 µg/mL (≈ 1.56 µM); in [5], 0.02 µg/mL (≈ 0.0522 µM); in assay [6] it was 4 µg/mL (≈ 10.4 µM). Besides, the IC50 is 0.03 µg/mL (≈ 0.0782 µM) in assay [7]; 0.5 µg/mL (≈ 1.3 µM) in assay [9]; 0.5 µg/mL (≈ 1.3 µM) in assay [10]; 0.05 µg/mL (≈ 0.13 µM) in assay [11]; 0.08 µg/mL (≈ 0.209 µM) in [12]; 0.008 µg/mL (≈ 0.0209 µM) in assay [13]. The IC50 in [14] was found to be 16 µg/mL (≈ 41.7 µM); in assay [16], 0.6 µg/mL (≈ 1.56 µM); in [17], 0.6 µg/mL (≈ 1.56 µM); in [18], 0.06 µg/mL (≈ 0.156 µM); in assay [19] it was 0.08 µg/mL (≈ 0.209 µM); in [20], 0.02 µg/mL (≈ 0.0522 µM). The compound also had an IC50 in assay [21] above 4 µg/mL. In addition, the MIC came to 0.03 µg/mL (≈ 0.0782 µM) against Escherichia coli [8], 0.5 µg/mL (≈ 1.3 µM) with Pseudomonas aeruginosa [15] and 0.25 µg/mL (≈ 0.652 µM) with Pseudomonas aeruginosa [22]. For the same compound, the outcome in the assay on Escherichia coli [23], in the assay with Pseudomonas aeruginosa [25] and with Pseudomonas aeruginosa [26] was Active.
On to `C[C@H]1[C@H](NC(=O)/C(=N\OC(C)(C)C(=O)O)c2csc(N)n2)C(=O)N1S(=O)(=O)O` [AZTREONAM], for which the IC50 in assay [1] was above 8 µg/mL; in [2], above 8 µg/mL; in [3], above 8 µg/mL; in assay [4], 0.03 µg/mL (≈ 0.0689 µM); in assay [5], above 8 µg/mL; in assay [6], above 8 µg/mL. Moreover, the half-maximal inhibitory concentration (IC50) is above 8 µg/mL in assay [7]; 2 µg/mL (≈ 4.59 µM) in assay [9]; 2 µg/mL (≈ 4.59 µM) in [10]; 16 µg/mL (≈ 36.7 µM) in assay [11]; 0.03 µg/mL (≈ 0.0689 µM) in assay [12]; 16 µg/mL (≈ 36.7 µM) in assay [13]. Further, the IC50 in [14] was above 16 µg/mL; in [16] it was 2 µg/mL (≈ 4.59 µM); in [17] it was 2 µg/mL (≈ 4.59 µM); in assay [18] it was 4 µg/mL (≈ 9.19 µM); in assay [19], below 0.02 µg/mL; in [20], above 4 µg/mL. This compound also gave an IC50 in [21] above 4 µg/mL.
As to `CC(C)(O/N=C(\C(=O)N[C@@H]1C(=O)N2C(C(=O)[O-])=C(C[n+]3ccccc3)CS[C@H]12)c1csc(N)n1)C(=O)O` [CEFTAZIDIME], the IC50 in [1] is 1.1 µg/mL (≈ 2.01 µM); in [2], 1.1 µg/mL (≈ 2.01 µM); in assay [3], 4 µg/mL (≈ 7.32 µM); in [4] it was 0.07 µg/mL (≈ 0.128 µM); in [5], above 4 µg/mL; in [6], above 4 µg/mL. For the same compound, the half-maximal inhibitory concentration (IC50) was above 4 µg/mL in assay [7]; 0.2 µg/mL (≈ 0.366 µM) in assay [9]; 3 µg/mL (≈ 5.49 µM) in assay [10]; above 32 µg/mL in assay [11]; 0.1 µg/mL (≈ 0.183 µM) in assay [12]; 2 µg/mL (≈ 3.66 µM) in [13]. Further, the IC50 in [14] is above 32 µg/mL; in assay [16] it was 0.3 µg/mL (≈ 0.549 µM); in assay [17] it was 1.6 µg/mL (≈ 2.93 µM); in [18], 4 µg/mL (≈ 7.32 µM); in [19], 0.1 µg/mL (≈ 0.183 µM); in assay [20] it was 2 µg/mL (≈ 3.66 µM). In [21], this compound gave an IC50 above 4 µg/mL. Moreover, the MIC turned out to be 0.12 µg/mL (≈ 0.22 µM) against Escherichia coli [8], 1 µg/mL (≈ 1.83 µM) in the assay with Pseudomonas aeruginosa [15] and 1 µg/mL (≈ 1.83 µM) in the assay on Pseudomonas aeruginosa [22].
For the compound `C[C@@H](O)[C@H]1C(=O)N2C(C(=O)O)=C(SCCNC=N)C[C@H]12` [IMIPENEM ANHYDROUS], the half-inhibitory concentration (IC50) in assay [1] stood at 0.5 µg/mL (≈ 1.67 µM); in assay [2] it was 0.4 µg/mL (≈ 1.34 µM); in assay [3], 0.008 µg/mL (≈ 0.0267 µM); in [4], 8 µg/mL (≈ 26.7 µM); in assay [5], 0.01 µg/mL (≈ 0.0334 µM); in [6] it was 0.4 µg/mL (≈ 1.34 µM). Also, the IC50 in assay [7] came to 0.1 µg/mL (≈ 0.334 µM); in assay [9] it was 0.1 µg/mL (≈ 0.334 µM); in assay [10] it was 0.2 µg/mL (≈ 0.668 µM); in assay [11], 0.1 µg/mL (≈ 0.334 µM); in assay [12], 0.09 µg/mL (≈ 0.301 µM); in assay [13], 0.008 µg/mL (≈ 0.0267 µM). Moreover, the IC50 in assay [14] was 2 µg/mL (≈ 6.68 µM); in [16], 0.1 µg/mL (≈ 0.334 µM); in [17], 0.1 µg/mL (≈ 0.334 µM); in assay [18], 0.1 µg/mL (≈ 0.334 µM); in assay [19], 0.3 µg/mL (≈ 1 µM); in assay [20], below 0.008 µg/mL. The IC50 in assay [21] stood at 1 µg/mL (≈ 3.34 µM). For the same compound, the MIC in the assay on Escherichia coli [8] was 0.25 µg/mL (≈ 0.835 µM); in the assay with Pseudomonas aeruginosa [15], 1 µg/mL (≈ 3.34 µM); against Pseudomonas aeruginosa [22], 2 µg/mL (≈ 6.68 µM). In addition, the outcome with Escherichia coli [23] and with Pseudomonas aeruginosa [27] was Active.
